Results as given in patent publication US11234979B2, “Heteroaryl compounds as muscarinic M1 receptor positive allosteric modulators” (SUVEN LIFE SCIENCES LIMITED, priority 2017, dated 2022).
Each block holds one molecule with its values, some of them ahead of it.

How the values were obtained:
[1] = target: T1, recombinant human Muscarinic M1 receptor (Homo sapiens, UniProt P11229); experiment: Allosteric potency EC50 for Muscarinic M1 receptor, CHO pCRE-Luc reporter assay with EC20 of acetylcholine; assay type: cell-based; conditions: CHO cells, in presence of EC20 of acetylcholine, 4 hours
T1 construct: expressed in transfected cells
T1 sequence (P11229 1-460): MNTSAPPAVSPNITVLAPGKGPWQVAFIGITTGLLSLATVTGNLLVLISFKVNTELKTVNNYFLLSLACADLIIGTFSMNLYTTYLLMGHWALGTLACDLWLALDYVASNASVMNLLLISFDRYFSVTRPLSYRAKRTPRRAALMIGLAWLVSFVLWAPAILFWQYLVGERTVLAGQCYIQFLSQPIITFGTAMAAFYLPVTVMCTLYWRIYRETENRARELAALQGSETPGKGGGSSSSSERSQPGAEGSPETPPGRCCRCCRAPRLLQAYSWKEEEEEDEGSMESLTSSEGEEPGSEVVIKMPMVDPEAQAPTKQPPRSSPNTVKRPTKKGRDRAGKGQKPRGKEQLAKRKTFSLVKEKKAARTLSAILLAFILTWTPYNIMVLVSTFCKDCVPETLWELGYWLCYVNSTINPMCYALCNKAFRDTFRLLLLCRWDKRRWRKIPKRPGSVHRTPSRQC
Procedure: Determination of Allosteric Potency EC50 Values for Muscarinic M1 Receptor:
A stable CHO cell line expressing recombinant human Muscarinic M1 receptor and pCRE-Luc reporter system was used for cell-based assay. The assay offers a non-radioactive based approach to determine binding of a compound to GPCRs. In this specific assay, the level of intracellular cyclic AMP which is modulated by activation or inhibition of the receptor is measured. The recombinant cells harbor luciferase reporter gene under the control of cAMP response element.
The above cells were grown in 96 well clear bottom white plates in Hams F12 medium containing 10% fetal bovine serum (FBS). Prior to the addition of compounds or standard agonist, cells were serum starved overnight. Increasing concentrations of test compounds were added along with EC20 of acetylcholine in OptiMEM medium to the cells. The incubation was continued at 37° C. in CO2 incubator for 4 hours. Medium was removed and cells were washed with phosphate buffered saline. The cells were lysed and luciferase activity was measured in a Luminometer. Luminescence counts in each concentrations of test item were normalized to the acetylcholine induced maximum response and the data was analyzed using Graphpad software. EC50 values of the compounds were defined as the concentration required in stimulating the luciferase activity by 50% in presence of EC20 of acetylcholine.

[2] = Rodent pharmacokinetic study; assay type: in vivo, Male Wistar rats; conditions: male, Wistar, rat, plasma; for bioavailability: oral 3 mg/kg vs i.v. 1 mg/kg
Procedure: Rodent Pharmacokinetic Study
Male Wistar rats (260±50 grams) were used as experimental animals. Animals were housed individually in polypropylene cage. Two days prior to study, male Wistar rats were anesthetized with isoflurane for surgical placement of jugular vein catheter. Rats were randomly divided for oral (3 mg/kg) and intravenous (i.v) (1 mg/kg) dosing (n=3/group) and fasted overnight before oral dosing (p.o.). However, rats allocated to intravenous (i.v.) dosing food and water was provided ad libitum.
At pre-determined point, blood was collected through jugular vein and replenished with an equivalent volume of normal saline. Collected blood was transferred into a labeled eppendorf tube containing 10 μL of heparin as an anticoagulant. Typically blood samples were collected at following time points: 0.08, 0.25, 0.5, 1, 2, 4, 6, 8, and 24 hours post dose. Blood was centrifuged at 4000 rpm for 10 minutes. Plasma was separated and stored frozen at −80° C. until analysis. The concentrations of the test compounds were quantified in plasma by qualified LC-MS/MS method using suitable extraction technique. The test compounds were quantified in the calibration range around 1-1000 ng/mL in plasma. Study samples were analyzed using calibration samples in the batch and quality control samples spread across the batch.
Pharmacokinetic parameters Cmax, AUCt, T1/2, clearance and bioavailability (F) were calculated by non-compartmental model using standard non-compartmental model by using Phoenix WinNonlin 6.0.2 or 6.0.3 version Software package.

[3] = Rodent brain penetration study; assay type: in vivo, Male Wistar rats; conditions: male, Wistar, brain and plasma, po; rat, 3 mg/kg, p.o. @ 1.0 hr, brain-plasma ratio; read-out: Single dose Rat Brain Penetration (Cb/Cp)
Procedure: Rodent Brain Penetration Study
Male Wistar rats (260±40 grams) were used as experimental animals. Three animals were housed in each cage. Animals were given water and food ad libitum throughout the experiment and maintained on a 12 hours light/dark cycle.
Brain penetration was determined in discrete manner in rats. One day prior to dosing day, male Wistar rats were acclimatized and randomly grouped according to their weight. At each time point (0.5, 1 and 2 hours) n=3 animals were used.
The test compounds were suitably preformulated and administered orally at (free base equivalent) 3 mg/kg. Blood samples were removed via cardiac puncture by using isoflurane anesthesia. The animals were sacrificed to collect brain tissue. Plasma was separated and brain samples were homogenized and stored frozen at −20° C. until analysis. The concentrations of the test compounds in plasma and brain were determined using LC-MS/MS method.
The test compounds were quantified in plasma and brain homogenate by qualified LC-MS/MS method using suitable extraction technique. The test compounds were quantified in the calibration range of 1-500 ng/mL in plasma and brain homogenate. Study samples were analyzed using calibration samples in the batch and quality control samples spread across the batch.

Structure (SMILES): O=C(N[C@H]1CCCC[C@@H]1O)c1cc(Cc2ccc3c(c2)CCO3)c2cccnn12 [Example 4, N-(cis-1S,2S-2-Hydroxycyclohexyl)-5-(2,3-dihydrobenzofuran-5-ylmethyl)-pyrrolo[1,2-b]pyridazine-7-carboxamide]
EC50 [1]: 0.836 µM
AUC(0-t) ([2]; iv, i.v. 1 mg/kg): 599 ± 58 ng·h/mL
half-life ([2]; iv, i.v. 1 mg/kg): 2.4 ± 0.9 h
clearance ([2]; iv, i.v. 1 mg/kg): 27 ± 3.4 mL/min/kg
bioavailability [2]: 25 ± 4%
AUC(0-t) ([2]; oral 3 mg/kg): 457 ± 73 ng·h/mL
Cmax ([2]; oral 3 mg/kg): 105 ± 3 ng/mL
half-life ([2]; oral 3 mg/kg): 3.9 ± 1.4 h
Kp at 1 h [3]: 1.31 ± 0.11

Structure (SMILES): O=C(N[C@H]1CCCC[C@@H]1O)c1cc(Cc2ccc(Br)c(F)c2)c2cccnn12 [Example 3, N-(cis-1S,2S-2-Hydroxycyclohexyl)-5-(4-bromo-3-fluorobenzyl)-pyrrolo[1,2-b]pyridazine-7-carboxamide]
EC50 [1]: 0.653 µM
AUC(0-t) ([2]; iv, i.v. 1 mg/kg): 951 ± 213 ng·h/mL
half-life ([2]; iv, i.v. 1 mg/kg): 3.5 ± 1.1 h
clearance ([2]; iv, i.v. 1 mg/kg): 17 ± 3 mL/min/kg
bioavailability [2]: 49 ± 27%
AUC(0-t) ([2]; oral 3 mg/kg): 1390 ± 780 ng·h/mL
Cmax ([2]; oral 3 mg/kg): 132 ± 31 ng/mL
half-life ([2]; oral 3 mg/kg): 3.6 ± 0.2 h
Kp at 1 h [3]: 1.9 ± 0.27

Structure (SMILES): O=C(N[C@H]1CCCC[C@@H]1O)c1cc(Cc2ccc(-n3cccn3)cc2)c2cccnn12 [Example 21, N-(cis-1S,2S-2-Hydroxycyclohexyl)-5-(4-pyrazol-1-ylbenzyl)-pyrrolo[1,2-b]pyridazine-7-carboxamide]
EC50 [1]: 0.179 µM
AUC(0-t) ([2]; iv, i.v. 1 mg/kg): 3700 ± 768 ng·h/mL
half-life ([2]; iv, i.v. 1 mg/kg): 2.5 ± 0.7 h
clearance ([2]; iv, i.v. 1 mg/kg): 4.6 ± 0.9 mL/min/kg
bioavailability [2]: 49 ± 12%
AUC(0-t) ([2]; oral 3 mg/kg): 5470 ± 1370 ng·h/mL
Cmax ([2]; oral 3 mg/kg): 687 ± 169 ng/mL
half-life ([2]; oral 3 mg/kg): 3.4 ± 1.01 h
Kp at 1 h [3]: 0.24 ± 0.02

Structure (SMILES): O=C(NC1CCOCC1)c1cc(Cc2ccc(-n3cccn3)cc2)c2cccnn12 [Example 22, N-(Tetrahydropyran-4-yl)-5-(4-pyrazol-1-ylbenzyl)-pyrrolo[1,2-b]pyridazine-7-carboxamide]
EC50 [1]: 1.76 µM

Structure (SMILES): COc1cccc(Cc2cc(C(=O)N[C@H]3CCCC[C@@H]3O)n3ncccc23)c1F [Example 18, N-(cis-1S,2S-2-Hydroxycyclohexyl)-5-(2-fluoro-3-methoxybenzyl)-pyrrolo[1,2-b]pyridazine-7-carboxamide]
EC50 [1]: 3.72 µM

Structure (SMILES): O=C(N[C@H]1CCCC[C@@H]1O)c1cc(Cc2ccc(F)c(F)c2)c2cccnn12 [Example 15, N-(cis-1S,2S-2-Hydroxycyclohexyl)-5-(3,4-difluorobenzyl)-pyrrolo[1,2-b]pyridazine-7-carboxamide]
EC50 [1]: 1.51 µM

Structure (SMILES): COc1ccc(Cc2cc(C(=O)N[C@H]3CCCC[C@@H]3O)n3ncccc23)cc1F [Example 10, N-(cis-1S,2S-2-Hydroxycyclohexyl)-5-(3-fluoro-4-methoxybenzyl)-pyrrolo[1,2-b]pyridazine-7-carboxamide]
EC50 [1]: 1.22 µM

Second part, the molecule after the results:

EC50 [1]: 0.259 µM
AUC(0-t) ([2]; iv, i.v. 1 mg/kg): 908 ± 164 ng·h/mL
half-life ([2]; iv, i.v. 1 mg/kg): 1.3 ± 0.2 h
clearance ([2]; iv, i.v. 1 mg/kg): 19 ± 3.8 mL/min/kg
bioavailability [2]: 103 ± 0.7%
AUC(0-t) ([2]; oral 3 mg/kg): 2820 ± 20 ng·h/mL
Cmax ([2]; oral 3 mg/kg): 414 ± 21 ng/mL
half-life ([2]; oral 3 mg/kg): 2.7 ± 0.1 h
Kp at 1 h [3]: 0.2 ± 0.001
Structure (SMILES): Cn1cc(-c2ccc(Cc3cc(C(=O)N[C@H]4CCCC[C@@H]4O)n4ncccc34)cc2F)cn1 [Example 33, N-(cis-1S,2S-2-Hydroxycyclohexyl)-5-[3-fluoro-4-(1-methyl-1H-pyrazol-4-yl)-benzyl]-pyrrolo[1,2-b]pyridazine-7-carboxamide]

EC50 [1]: 0.463 µM
Structure (SMILES): O=C(NC1CCOCC1O)c1cc(Cc2ccnc(Cl)c2)n2cccc(F)c12 (stereo not drawn) [Example 46, N-(3-Hydroxytetrahydropyran-4-yl)-3-(2-chloropyridine-4-ylmethyl)-8-fluoroindolizine-1-carboxamide]

EC50 [1]: 3.65 µM
Structure (SMILES): Cn1cc(-c2ccc(Cc3cc(C(=O)NC4COCCC4O)c4c(F)cccn34)cc2)cn1 (stereo not drawn) [Example 51, N-(4-Hydroxytetrahydropyran-3-yl)-3-(4-(1-methyl-1H-pyrazol-4-yl)-benzyl)-8-fluoroindolizine-1-carboxamide]

EC50 [1]: 1.18 µM
Structure (SMILES): O=C(N[C@H]1CCCC[C@@H]1O)c1cc(Cc2ccc(F)cc2Br)c2cccnn12 [Example 24, N-(cis-1S,2S-2-Hydroxycyclohexyl)-5-(2-bromo-4-fluorobenzyl)-pyrrolo[1,2-b]pyridazine-7-carboxamide]

EC50 [1]: 1.01 µM
Structure (SMILES): O=C(N[C@H]1CCCC[C@@H]1O)c1cc(Cc2ccnc(Br)c2)c2cccnn12 [Example 29, N-(cis-1S,2S-2-Hydroxycyclohexyl)-5-(2-bromopyridin-4-ylmethyl)-pyrrolo[1,2-b]pyridazine-7-carboxamide]

EC50 [1]: 1.53 µM
Structure (SMILES): Cn1cc(-c2cccc(Cc3cc(C(=O)N[C@H]4CCCC[C@@H]4O)n4ncccc34)c2)cn1 [Example 38, N-(cis-1S,2S-2-Hydroxycyclohexyl)-5-[3-(1-methyl-1H-pyrazol-4-yl)-benzyl]-pyrrolo[1,2-b]pyridazine-7-carboxamide]

EC50 [1]: 0.166 µM
Structure (SMILES): Cn1cc(-c2ccc(Cc3cc(C(=O)N[C@H]4CCCC[C@@H]4O)c4c(F)cccn34)cc2)cn1 [Example 48, N-(cis-1S,2S-2-Hydroxycyclohexyl)-5-[4-(1-methyl-1H-pyrazol-4-yl)-benzyl]-8-fluoroindolizine-1-carboxamide]

EC50 [1]: 1.65 µM
Structure (SMILES): Cn1cc(-c2cc(Cc3cc(C(=O)N[C@H]4CCCC[C@@H]4O)n4ncccc34)ccn2)cn1 [Example 40, N-(cis-1S,2S-2-Hydroxycyclohexyl)-5-[2-(1-methyl-1H-pyrazol-4-yl)-pyridin-4-ylmethyl]-pyrrolo[1,2-b]pyridazine-7-carboxamide]

EC50 [1]: 0.643 µM
Structure (SMILES): O=C(N[C@H]1CCCC[C@@H]1O)c1cc(Cc2ccc(F)c(Br)c2)c2cccnn12 [Example 26, N-(cis-1S,2S-2-Hydroxycyclohexyl)-5-(3-bromo-4-fluorobenzyl)-pyrrolo[1,2-b]pyridazine-7-carboxamide]
